Assay results: patent US20040087653A1, “Methods for the treatment of respiratory diseases and conditions with a selective iNOS inhibitor and a PDE inhibitor and compositions therefor” (priority 2002, published 2004)
Where a name gives a salt, the structure may show the parent alone.

Tests used:
[1] = target: T1, human endothelial constitutive NOS (hecNOS) (Homo sapiens, UniProt P29474); assay: Citrulline assay for nitric oxide synthase, hecNOS; format: biochemical; settings: averages across all experiments and all lots; 30 μM L-arginine
T1 construct: made in house; host or cells: Sf9 insect cells, baculovirus vector
Excerpt: Nitric oxide synthase (NOS) activity can be measured by monitoring the conversion of L-[2,3-^3H]-arginine to L-[2,3-^3H]-citrulline (Bredt and Snyder, Proc. Natl. Acad. Sci. U.S.A., 87, 682-685, 1990 and Moore et al, J. Med. Chem., 39, 669-672, 1996). Human inducible NOS (hiNOS), human endothelial constitutive_NOS (hecNOS) and human neuronal constitutive NOS (hncNOS) are each cloned from RNA extracted from human tissue. The cDNA for human inducible NOS (hiNOS) is isolated from a λcDNA library made from RNA extracted from a colon sample from a patient with ulcerative colitis. The cDNA for human endothelial constitutive NOS (hecNOS) is isolated from a λcDNA library made from RNA extracted from human umbilical vein endothelial cells (HUVEC) and the cDNA for human neuronal constitutive NOS (hncNOS) is isolated from a λcDNA library made from RNA extracted from human cerebellum obtained from a cadaver. The recombinant enzymes are expressed in Sf9 insect cells using a baculovirus vector (Rodi et al, in The Biology of Nitric Oxide, Pt. 4: Enzymology, Biochemistry and Immunology; Moncada, S., Feelisch, M., Busse, R., Higgs, E., Eds.; Portland Press Ltd.: London, 1995; pp 447-450). […] After mixing the resin is allowed to settle and L-[2,3-^3H]-Citrulline formation is determined by counting aliquots of the supernatant with a liquid scintillation counter. […]

[2] = Clinical study: tolerability, FEV1, blood pressure, heart rate, laboratory parameters; format: in vivo, human; settings: single oral dose
Procedure: (§1) A single center study was performed at the National Heart and Lung Institute (NHLI) Clinical Studies Unit in London, UK. The clinical protocol was submitted and accepted by the Ethics Committee of the Royal Brompton Hospital Trust, and the study was carried out according to Good Clinical Practice standards. Each subject provided written informed consent.
(§2) Twenty-four, adult, healthy volunteers and 24 patients with mild asthma participated in this study. All subjects were lifelong non-smokers. Asthma patients (n=24) had mild asthma according to American Thoracic Society Criteria, with medication on an as required basis with inhaled albuterol only. […] All asthmatic patients had baseline exhaled breath NO levels of >15 parts per billion (ppb). Healthy control (n=24) subjects were matched for age and sex, and had no clinically significant disease. Healthy subjects were required to have baseline exhaled NO levels between 4 and 9 ppb.
(§3) The study included 2 panels of healthy volunteers and asthmatic patients who received in a double-blind, randomized manner, a single dose of oral compound NN or placebo. The study was carried out in two phases according to the dose of compound NN under investigation. The first panel consisted of patients with mild-to-moderate asthma (n=12) and healthy subjects (n=12) who received single doses of 20 mg of compound NN and placebo, while the second panel of mild-to-moderate asthmatics (n=12) and healthy subjects (n=12) received single doses of 200 mg of compound NN and placebo. No patient or subject participated in both panels of this study. Evaluation of the first panel was completed before moving on to the second panel. The study evaluated the tolerability and pharmacokinetics of orally-administered compound NN and monitored levels of exhaled breath NO.
Forced expiratory volume in 1 sec (FEV1) and heart rate data had no significant deviations from normality using the Shapiro-Wilks test, therefore parametric statistical methods were used, and the significance of the change from baseline was tested using a paired […]. […]

[3] = system: exhaled breath nitric oxide (NO); assay: Clinical study: exhaled breath NO after single oral dose; format: in vivo, human
Procedure: as §1, §2, §3
Measurement of exhaled NO: Exhaled NO was measured using a chemoluminescence analyzer (Logan 2000, Rochester, UK) and methods in accordance with International Guidelines. The analyser was calibrated daily using a certified NO mixture of 50 to 200 ppb (BOC Special gases, Guildford, UK) and ambient air NO recordings made on an hourly basis. Subjects were asked to refrain from strenuous exercise before any measurement. Each subject was seated for at least 5 minutes before any measurement was taken and remained seated throughout the procedure. […] Two successive recordings were taken, and the average value was calculated.
Statistical methods for clinical data: Exhaled NO data, including change from baseline and the percentage change, were tested for normality using the Shapiro-Wilks test. […] The area under the curve (AUC) for the change from baseline and the percentage change, and the differences between active and placebo were calculated. […]

i-NOS = i-NOS (Homo sapiens, UniProt P35228); assay: i-NOS inhibition, comparison with NIL amides
i-NOS, sequence (P35228 whole entry): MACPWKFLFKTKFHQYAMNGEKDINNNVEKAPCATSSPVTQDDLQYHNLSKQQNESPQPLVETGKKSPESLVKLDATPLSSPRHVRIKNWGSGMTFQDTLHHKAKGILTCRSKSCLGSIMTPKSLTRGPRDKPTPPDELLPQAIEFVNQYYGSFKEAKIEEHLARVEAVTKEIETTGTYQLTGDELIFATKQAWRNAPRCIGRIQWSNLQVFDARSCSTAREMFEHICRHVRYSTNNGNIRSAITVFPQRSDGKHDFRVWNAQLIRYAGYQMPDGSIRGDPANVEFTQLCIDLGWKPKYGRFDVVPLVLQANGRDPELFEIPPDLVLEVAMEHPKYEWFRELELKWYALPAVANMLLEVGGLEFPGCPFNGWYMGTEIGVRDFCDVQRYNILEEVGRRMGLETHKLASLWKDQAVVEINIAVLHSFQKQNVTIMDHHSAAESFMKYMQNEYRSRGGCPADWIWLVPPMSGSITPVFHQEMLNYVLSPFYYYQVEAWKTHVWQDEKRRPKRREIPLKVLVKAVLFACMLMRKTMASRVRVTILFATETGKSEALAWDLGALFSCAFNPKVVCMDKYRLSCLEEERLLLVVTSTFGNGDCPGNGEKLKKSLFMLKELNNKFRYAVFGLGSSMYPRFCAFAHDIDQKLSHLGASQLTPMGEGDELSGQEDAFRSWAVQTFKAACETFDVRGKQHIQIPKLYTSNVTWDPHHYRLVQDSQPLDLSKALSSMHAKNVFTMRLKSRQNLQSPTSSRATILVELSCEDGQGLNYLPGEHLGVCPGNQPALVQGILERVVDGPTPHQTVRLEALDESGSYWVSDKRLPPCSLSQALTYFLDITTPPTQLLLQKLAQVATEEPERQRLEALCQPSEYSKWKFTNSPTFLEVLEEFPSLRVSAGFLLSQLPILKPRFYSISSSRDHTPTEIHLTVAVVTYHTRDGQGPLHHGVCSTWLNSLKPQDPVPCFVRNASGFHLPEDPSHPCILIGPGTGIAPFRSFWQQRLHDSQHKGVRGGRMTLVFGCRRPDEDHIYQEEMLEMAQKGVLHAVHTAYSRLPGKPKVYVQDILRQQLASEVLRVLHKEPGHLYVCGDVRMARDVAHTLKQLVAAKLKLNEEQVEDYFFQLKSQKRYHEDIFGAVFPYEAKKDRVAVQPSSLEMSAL

[4] = healthy volunteers and asthmatics

CC(=N)NCCCC[C@H](N)C(=O)Nc1nnn[nH]1 [Example NN, 2S-amino-6-[(1-iminoethyl)amino]-N-(1H-tetrazol-5-yl)hexanamide, hydrate, dihydrochloride]
IC50 [1]: 2.42 mM | effect on haematology or blood biochemistry [2]: no effect | effects on heart rate, blood pressure and FEV1 [2]: no apparent effects | tolerability [2, 4]: well tolerated | inhibition of exhaled NO in asthma ([3]; 200 mg single oral dose): 95% | residual exhaled NO [3, 4]: < 1 ppb | change in exhaled NO ([3]; single oral dose 20 mg or 200 mg, healthy volunteers and asthmatics, 72 hour assessment): rapid reduction in exhaled NO | duration of the decrease in exhaled breath NO ([3]; single oral dose, healthy volunteers and asthmatics): 3 days | i-NOS inhibitory potency compared with NIL amide or NIL dimethylamide (i-NOS): more potent i-NOS inhibitor
